Measured values reported in paper PMC10924921, “Mi-2β promotes immune evasion in melanoma by activating EZH2 methylation” (Nature Communications, 2024).

Assays:
Test in all cases: biochemical
Design in all cases: KINOMEscan active-site competition binding panel (468 kinase assays), per cent of control at 1000 nM
Conditions in all cases: KINOMEscan per cent of control (binding competition); read-out: Percent Control
MST1R = MST1R (Homo sapiens, UniProt Q04912)
Source text: (§1) Figure S7 / Percent Control

MAK = MAK (Homo sapiens, UniProt P20794)
Source text: as §1

[1] = target: T1, RSK4(Kin.Dom.1-N-terminal) (Homo sapiens, UniProt Q9UK32)
T1 construct: gene RPS6KA6; Kin.Dom.1-N-terminal
Source text: as §1

MYLK = MYLK (Homo sapiens, UniProt Q15746)
Source text: as §1

S6K1 = target: T2, S6K1 (Homo sapiens, UniProt P23443)
T2 construct: gene RPS6KB1
Source text: as §1

YES = target: T3, YES (Homo sapiens, UniProt P07947)
T3 construct: gene YES1
Source text: as §1

MUSK = MUSK (Homo sapiens, UniProt O15146)
Source text: as §1

CSNK1G1 = CSNK1G1 (Homo sapiens, UniProt Q9HCP0)
Source text: as §1

EPHB3 = EPHB3 (Homo sapiens, UniProt P54753)
Source text: as §1

GRK1 = GRK1 (Homo sapiens, UniProt Q15835)
Source text: as §1

FYN = FYN (Homo sapiens, UniProt P06241)
Source text: as §1

FLT1 = FLT1 (Homo sapiens, UniProt P17948)
Source text: as §1

[2] = target: T4, JAK1(JH2domain-pseudokinase) (Homo sapiens, UniProt P23458)
T4 construct: JH2domain-pseudokinase
Source text: as §1

EPHA8 = EPHA8 (Homo sapiens, UniProt P29322)
Source text: as §1

HUNK = HUNK (Homo sapiens, UniProt P57058)
Source text: as §1

[3] = target: T5, TYK2(JH1domain-catalytic) (Homo sapiens, UniProt P29597)
T5 construct: JH1domain-catalytic
Source text: as §1

ALK = ALK (Homo sapiens, UniProt Q9UM73)
Source text: as §1

HPK1 = target: T6, HPK1 (Homo sapiens, UniProt Q92918)
T6 construct: gene MAP4K1
Source text: as §1

CAMK2G = CAMK2G (Homo sapiens, UniProt Q13555)
Source text: as §1

RET(V804M) = RET(V804M) (Homo sapiens, UniProt P07949, V804M)
Source text: as §1

CDK3 = CDK3 (Homo sapiens, UniProt Q00526)
Source text: as §1

AKT3 = AKT3 (Homo sapiens, UniProt Q9Y243)
Source text: as §1

LZK = target: T7, LZK (Homo sapiens, UniProt O43283)
T7 construct: gene MAP3K13
Source text: as §1

[4] = target: T8, RSK4(Kin.Dom.2-C-terminal) (Homo sapiens, UniProt Q9UK32)
T8 construct: gene RPS6KA6; Kin.Dom.2-C-terminal
Source text: as §1

Chain of GRK1 (Q15835 whole entry): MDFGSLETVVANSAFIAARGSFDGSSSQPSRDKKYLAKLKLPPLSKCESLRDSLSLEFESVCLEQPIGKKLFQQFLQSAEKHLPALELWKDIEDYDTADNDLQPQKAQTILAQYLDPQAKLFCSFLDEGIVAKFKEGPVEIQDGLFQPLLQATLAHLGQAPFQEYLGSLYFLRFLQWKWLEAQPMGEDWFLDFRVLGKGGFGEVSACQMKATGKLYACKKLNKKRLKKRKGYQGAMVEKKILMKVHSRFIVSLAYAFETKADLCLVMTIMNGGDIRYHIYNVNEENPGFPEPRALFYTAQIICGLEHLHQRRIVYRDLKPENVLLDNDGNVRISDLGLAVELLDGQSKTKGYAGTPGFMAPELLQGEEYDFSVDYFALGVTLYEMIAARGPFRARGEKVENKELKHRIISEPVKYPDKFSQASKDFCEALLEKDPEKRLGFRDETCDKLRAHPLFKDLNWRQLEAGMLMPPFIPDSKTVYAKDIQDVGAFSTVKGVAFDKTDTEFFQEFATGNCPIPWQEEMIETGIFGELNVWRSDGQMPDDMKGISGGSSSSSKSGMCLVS
Chain of CSNK1G1 (Q9HCP0 whole entry): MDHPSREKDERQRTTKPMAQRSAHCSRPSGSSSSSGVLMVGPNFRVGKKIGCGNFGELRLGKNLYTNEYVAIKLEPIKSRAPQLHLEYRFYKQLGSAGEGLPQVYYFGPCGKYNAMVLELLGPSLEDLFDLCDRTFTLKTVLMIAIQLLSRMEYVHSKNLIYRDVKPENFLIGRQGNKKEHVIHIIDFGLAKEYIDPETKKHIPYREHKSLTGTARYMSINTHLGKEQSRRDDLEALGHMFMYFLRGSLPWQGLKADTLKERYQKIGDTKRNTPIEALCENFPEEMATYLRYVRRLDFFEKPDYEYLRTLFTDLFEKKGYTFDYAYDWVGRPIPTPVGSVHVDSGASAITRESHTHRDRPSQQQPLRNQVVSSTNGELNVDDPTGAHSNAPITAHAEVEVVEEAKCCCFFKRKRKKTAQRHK
Chain of AKT3 (Q9Y243 whole entry): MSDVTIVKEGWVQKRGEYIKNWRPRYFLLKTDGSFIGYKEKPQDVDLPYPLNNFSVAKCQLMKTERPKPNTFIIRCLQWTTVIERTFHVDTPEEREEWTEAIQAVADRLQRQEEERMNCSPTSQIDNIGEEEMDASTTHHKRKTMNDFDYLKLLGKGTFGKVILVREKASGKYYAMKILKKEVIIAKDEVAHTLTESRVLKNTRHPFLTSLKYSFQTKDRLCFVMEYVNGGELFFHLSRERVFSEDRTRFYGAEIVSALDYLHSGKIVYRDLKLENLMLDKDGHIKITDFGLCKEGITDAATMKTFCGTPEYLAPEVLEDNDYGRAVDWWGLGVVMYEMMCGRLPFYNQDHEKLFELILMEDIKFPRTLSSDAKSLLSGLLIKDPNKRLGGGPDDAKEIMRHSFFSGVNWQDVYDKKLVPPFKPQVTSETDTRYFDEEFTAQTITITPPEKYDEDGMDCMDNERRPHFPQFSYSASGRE
Chain of FYN (P06241 whole entry): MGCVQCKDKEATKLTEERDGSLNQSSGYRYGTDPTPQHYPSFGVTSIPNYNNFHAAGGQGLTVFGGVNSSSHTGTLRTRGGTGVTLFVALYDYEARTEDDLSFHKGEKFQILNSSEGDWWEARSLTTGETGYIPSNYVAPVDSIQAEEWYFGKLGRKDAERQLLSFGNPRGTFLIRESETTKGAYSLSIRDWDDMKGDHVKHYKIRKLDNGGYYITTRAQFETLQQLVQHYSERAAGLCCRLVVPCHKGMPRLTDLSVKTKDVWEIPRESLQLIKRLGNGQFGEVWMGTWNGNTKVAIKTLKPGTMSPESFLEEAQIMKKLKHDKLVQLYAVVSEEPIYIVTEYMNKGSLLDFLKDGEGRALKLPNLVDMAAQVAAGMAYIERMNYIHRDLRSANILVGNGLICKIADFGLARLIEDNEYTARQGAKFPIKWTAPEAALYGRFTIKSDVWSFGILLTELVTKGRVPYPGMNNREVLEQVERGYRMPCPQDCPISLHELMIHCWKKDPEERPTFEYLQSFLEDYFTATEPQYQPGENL
T8 sequence (Q9UK32 whole entry): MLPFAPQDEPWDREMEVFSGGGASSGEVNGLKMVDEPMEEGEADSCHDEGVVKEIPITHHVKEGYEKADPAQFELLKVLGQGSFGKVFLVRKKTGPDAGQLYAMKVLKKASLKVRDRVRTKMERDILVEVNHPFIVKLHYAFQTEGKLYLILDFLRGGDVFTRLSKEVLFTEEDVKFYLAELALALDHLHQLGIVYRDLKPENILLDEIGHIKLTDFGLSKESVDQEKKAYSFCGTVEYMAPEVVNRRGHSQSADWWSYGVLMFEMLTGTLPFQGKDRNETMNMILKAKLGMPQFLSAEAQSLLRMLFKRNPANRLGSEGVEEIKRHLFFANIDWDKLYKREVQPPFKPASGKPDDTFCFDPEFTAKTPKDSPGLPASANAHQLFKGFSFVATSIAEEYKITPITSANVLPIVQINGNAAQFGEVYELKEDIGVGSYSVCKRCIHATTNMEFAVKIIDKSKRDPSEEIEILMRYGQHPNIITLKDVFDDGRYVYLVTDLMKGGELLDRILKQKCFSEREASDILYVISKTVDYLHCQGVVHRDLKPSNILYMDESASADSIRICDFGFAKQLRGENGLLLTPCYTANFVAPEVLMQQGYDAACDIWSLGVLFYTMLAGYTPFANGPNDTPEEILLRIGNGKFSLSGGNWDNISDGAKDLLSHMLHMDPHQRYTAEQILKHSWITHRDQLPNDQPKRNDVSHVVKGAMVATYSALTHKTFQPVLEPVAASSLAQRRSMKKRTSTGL
T1 sequence (Q9UK32 whole entry): as above
Chain of ALK (Q9UM73 whole entry): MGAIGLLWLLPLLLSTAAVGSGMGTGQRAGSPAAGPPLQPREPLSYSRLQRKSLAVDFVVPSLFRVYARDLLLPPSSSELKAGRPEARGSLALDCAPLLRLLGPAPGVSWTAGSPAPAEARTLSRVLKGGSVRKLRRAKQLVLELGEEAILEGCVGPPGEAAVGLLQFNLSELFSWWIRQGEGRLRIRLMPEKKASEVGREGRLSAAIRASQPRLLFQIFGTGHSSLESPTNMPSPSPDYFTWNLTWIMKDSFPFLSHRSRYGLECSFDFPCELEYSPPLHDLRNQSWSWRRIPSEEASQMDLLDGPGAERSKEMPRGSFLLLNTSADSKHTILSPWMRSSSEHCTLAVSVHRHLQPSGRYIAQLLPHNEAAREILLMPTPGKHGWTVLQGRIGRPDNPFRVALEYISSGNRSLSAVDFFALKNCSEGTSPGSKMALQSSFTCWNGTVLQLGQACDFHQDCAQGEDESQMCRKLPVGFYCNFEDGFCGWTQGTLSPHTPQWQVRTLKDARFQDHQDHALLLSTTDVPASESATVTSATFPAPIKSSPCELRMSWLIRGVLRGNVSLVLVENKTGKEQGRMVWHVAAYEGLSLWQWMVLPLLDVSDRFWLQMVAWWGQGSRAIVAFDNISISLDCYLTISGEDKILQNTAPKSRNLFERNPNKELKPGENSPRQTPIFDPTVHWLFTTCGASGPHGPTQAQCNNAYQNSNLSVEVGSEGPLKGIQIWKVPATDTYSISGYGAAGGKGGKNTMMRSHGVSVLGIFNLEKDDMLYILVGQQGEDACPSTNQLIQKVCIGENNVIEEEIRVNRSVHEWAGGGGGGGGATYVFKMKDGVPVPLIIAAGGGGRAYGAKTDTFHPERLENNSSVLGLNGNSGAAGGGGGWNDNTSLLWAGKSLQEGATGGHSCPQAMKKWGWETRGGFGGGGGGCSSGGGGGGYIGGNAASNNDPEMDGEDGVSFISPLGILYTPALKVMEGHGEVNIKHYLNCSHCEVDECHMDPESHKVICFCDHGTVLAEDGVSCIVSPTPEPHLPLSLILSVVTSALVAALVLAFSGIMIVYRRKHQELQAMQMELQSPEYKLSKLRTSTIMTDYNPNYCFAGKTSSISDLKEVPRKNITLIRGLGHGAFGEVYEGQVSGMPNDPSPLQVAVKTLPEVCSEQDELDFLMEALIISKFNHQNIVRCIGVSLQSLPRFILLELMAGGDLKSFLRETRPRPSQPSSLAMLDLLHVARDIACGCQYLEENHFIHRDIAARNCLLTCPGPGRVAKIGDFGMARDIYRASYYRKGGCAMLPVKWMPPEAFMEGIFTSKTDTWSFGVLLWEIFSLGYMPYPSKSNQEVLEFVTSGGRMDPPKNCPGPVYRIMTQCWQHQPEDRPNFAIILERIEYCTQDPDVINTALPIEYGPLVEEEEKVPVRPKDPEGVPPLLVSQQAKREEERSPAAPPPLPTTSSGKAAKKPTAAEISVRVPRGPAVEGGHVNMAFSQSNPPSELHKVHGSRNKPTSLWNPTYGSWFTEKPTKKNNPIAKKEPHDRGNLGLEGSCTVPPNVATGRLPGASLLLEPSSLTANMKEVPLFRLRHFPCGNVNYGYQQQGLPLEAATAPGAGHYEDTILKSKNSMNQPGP
T2 sequence (P23443 whole entry): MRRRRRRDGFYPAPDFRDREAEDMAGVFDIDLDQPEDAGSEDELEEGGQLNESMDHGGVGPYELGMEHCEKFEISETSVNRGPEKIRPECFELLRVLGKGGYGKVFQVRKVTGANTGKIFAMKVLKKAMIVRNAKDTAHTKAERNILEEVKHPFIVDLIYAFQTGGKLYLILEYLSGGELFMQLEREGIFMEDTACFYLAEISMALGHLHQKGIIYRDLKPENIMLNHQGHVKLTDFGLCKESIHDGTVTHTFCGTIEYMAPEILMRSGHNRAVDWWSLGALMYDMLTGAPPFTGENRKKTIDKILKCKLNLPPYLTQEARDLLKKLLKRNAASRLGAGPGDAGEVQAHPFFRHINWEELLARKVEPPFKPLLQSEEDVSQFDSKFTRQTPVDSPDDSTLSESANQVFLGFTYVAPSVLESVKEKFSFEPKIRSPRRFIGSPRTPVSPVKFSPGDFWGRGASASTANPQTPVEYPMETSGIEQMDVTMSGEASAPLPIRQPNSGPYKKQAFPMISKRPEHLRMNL

Cn1c(=O)[nH]c2ccc(-c3cccc(C(=O)NC4CCn5ccnc5C4)c3)cc21 (stereo not drawn) [Z36-MP5]
remaining binding at 1 µM (MST1R): 64% | remaining binding at 1 µM (MAK): 88% | remaining binding at 1 µM [1]: 36% | remaining binding at 1 µM (MYLK): 81% | remaining binding at 1 µM (S6K1): 50% | remaining binding at 1 µM (YES): 99% | remaining binding at 1 µM (MUSK): 83% | remaining binding at 1 µM (CSNK1G1): 63% | remaining binding at 1 µM (EPHB3): 78% | remaining binding at 1 µM (GRK1): 29% | remaining binding at 1 µM (FYN): 100% | remaining binding at 1 µM (FLT1): 95% | remaining binding at 1 µM [2]: 51% | remaining binding at 1 µM (EPHA8): 75% | remaining binding at 1 µM (HUNK): 74% | remaining binding at 1 µM [3]: 64% | remaining binding at 1 µM (ALK): 51% | remaining binding at 1 µM (HPK1): 83% | remaining binding at 1 µM (CAMK2G): 55% | remaining binding at 1 µM (RET(V804M)): 36% | remaining binding at 1 µM (CDK3): 43% | remaining binding at 1 µM (AKT3): 91% | remaining binding at 1 µM (LZK): 63% | remaining binding at 1 µM [4]: 82%
